From ChEMBL document CHEMBL2439975, “Aminopropyl carbazole analogues as potent enhancers of neurogenesis” (Bioorg Med Chem, 2013)
Active and inactive are the calls of the source. No cut-off for these calls is given here.

How the values were obtained:
NSC [1] = assay: Induction of differentiation of Sprague-Dawley rat embryo cortex NSC assessed as TUJ1-positive neurons at 5 uM after 4 days by immunostaining method relative to DMSO-treated control; format: functional
NSC [2] = assay: Cytotoxicity against Sprague-Dawley rat embryo cortex NSC assessed as shrinkage and rounding up of cells at 20 to 50 uM after 2 days by microscopy relative to DMSO-treated control in presence of EGF and FGF2; format: cell-based; details: 48 h
NSC [3] = assay: Cytotoxicity against Sprague-Dawley rat embryo cortex NSC assessed as cell viability at 1 to 50 uM after 2 days by MTT assay relative to DMSO-treated control; format: cell-based; details: 48 h
NSC [4] = assay: Neuroprotective activity against Sprague-Dawley rat embryo cortex NSC assessed as reduction of bax mRNA at 10 uM after 2 days by RT-PCR method relative to DMSO-treated control; format: functional, cell-based
NSC [5] = assay: Neuroprotective activity against Sprague-Dawley rat embryo cortex NSC assessed as […] of bcl2 to bax at 10 uM after 2 days by RT-PCR method relative to DMSO-treated control; format: functional, cell-based
NSC [6] = assay: Neuroprotective activity against Sprague-Dawley rat embryo cortex NSC assessed as reduction of bcl2 mRNA at 10 uM after 2 days by RT-PCR method relative to DMSO-treated control; format: functional, cell-based
NSC [7] = assay: Cytotoxicity against Sprague-Dawley rat embryo cortex NSC assessed as effect on morphology at 10 uM after 4 days by DAPI-based phase-contrast microscopy relative to DMSO-treated control; format: cell-based; details: 96 h
NSC [8] = assay: Induction of neurogenesis of Sprague-Dawley rat embryo cortex NSC assessed as increase in beta3 tubulin mRNA expression at 5 uM after 4 days by RT-PCR method relative to DMSO-treated control; format: functional
NSC [9] = assay: Neuroprotective activity against Sprague-Dawley rat embryo cortex NSC assessed as reduction of bcl2 mRNA at 5 to 10 uM after 2 days by RT-PCR method relative to DMSO-treated control; format: functional, cell-based
NSC [10] = assay: Neuroprotective activity against Sprague-Dawley rat embryo cortex NSC assessed as […] of bcl2 to bax at 5 to 10 uM after 2 days by RT-PCR method relative to DMSO-treated control; format: functional, cell-based
NSC [11] = assay: Antiproliferative activity against Sprague-Dawley rat embryo cortex NSC assessed as reduction in neurosphere volume at 5 to 10 uM after 5 days by neurosphere growth assay relative to DMSO-treated control in presence of EGF and FGF2; format: functional, cell-based
NSC [12] = assay: Inhibition of astrocytogenesis of Sprague-Dawley rat embryo cortex NSC assessed as repression of gfap mRNA expression after 4 days by RT-PCR method relative to DMSO-treated control; format: functional, cell-based
NSC [13] = assay: Induction of neurogenesis of Sprague-Dawley rat embryo cortex NSC assessed as increase in beta3 tubulin mRNA expression after 4 days by RT-PCR method relative to DMSO-treated control; format: functional, cell-based
NSC [14] = assay: Induction of neurogenesis of Sprague-Dawley rat embryo cortex NSC assessed as effect on morphology at 10 uM after 4 days by DAPI-based phase-contrast microscopy relative to DMSO-treated control; format: functional, cell-based
NSC [15] = assay: Neuroprotective activity against Sprague-Dawley rat embryo cortex NSC assessed as reduction of bax mRNA at 5 to 10 uM after 2 days by RT-PCR method relative to DMSO-treated control; format: functional, cell-based
NSC [16] = assay: Induction of neurogenesis of Sprague-Dawley rat embryo cortex NSC assessed as increase in neuroD mRNA expression after 4 days by RT-PCR method relative to DMSO-treated control; format: functional, cell-based
NSC [17] = assay: Inhibition of astrocytogenesis of Sprague-Dawley rat embryo cortex NSC assessed as downregulation of notch1 mRNA expression after 4 days by RT-PCR method relative to DMSO-treated control; format: functional, cell-based
NSC [18] = assay: Inhibition of astrocytogenesis of Sprague-Dawley rat embryo cortex NSC assessed as downregulation of hes1 mRNA expression after 4 days by RT-PCR method relative to DMSO-treated control; format: functional, cell-based

With COc1cccc(N(CC(Cn2c3ccc(Br)cc3c3cc(Br)ccc32)OC(C)=O)S(=O)(=O)c2ccc(C)cc2)c1 (stereo not drawn) the “fold change (FC)” value (NSC [1]) was 0.65.
In the case of COc1cccc(N(CC(=O)Cn2c3ccc(Br)cc3c3cc(Br)ccc32)S(=O)(=O)c2ccc(C)cc2)c1, the “fold change (FC)” value (NSC [1]) is reported as 0.52.
For COc1cccc(NCC(F)Cn2c3ccc(Br)cc3c3cc(Br)ccc32)c1 (stereo not drawn), the Activity (NSC [2]) was “Toxic”, the Activity (NSC [3]) was “Non-toxic” and the Activity (NSC [4]) was “inactive”. The Activity (NSC [5]) was “Active”, the “fold change (FC)” value (NSC [1]) was 1.16 and the Activity (NSC [6]) was “Active”.
For Cc1ccc(NCC(O)Cn2c3ccc(Br)cc3c3cc(Br)ccc32)cc1 (stereo not drawn), the Activity (NSC [7]) was “Toxic” and the “fold change (FC)” value (NSC [1]) was 1.88.
In the case of COc1cccc(NCC(Cn2c3ccc(Br)cc3c3cc(Br)ccc32)OC(C)=O)c1 (stereo not drawn), the “fold change (FC)” value (NSC [1]) is reported as 0.63.
COc1cccc(NCC(Cn2c3ccccc3c3ccccc32)OC(C)=O)c1 (stereo not drawn) was tested, and the “fold change (FC)” value (NSC [1]) was 0.39.
For COc1cccc(OCC(F)Cn2c3ccc(Br)cc3c3cc(Br)ccc32)c1 (stereo not drawn), the “fold change (FC)” value (NSC [1]) was 0.87.
In the case of COc1ccc(NCC(O)Cn2c3ccc(Br)cc3c3cc(Br)ccc32)cc1OC (stereo not drawn), the Activity (NSC [7]) is reported as “Toxic”, the “fold change (FC)” value (NSC [1]) is reported as 1.67 and the “fold change (FC)” value (NSC [8]) is reported as 1.47.
In the case of COc1cccc(NCC(Cn2c3ccc(Br)cc3c3cc(Br)ccc32)OC)c1 (stereo not drawn), the “fold change (FC)” value (NSC [1]) is reported as 0.96.
With COc1cccc(NCC(Cn2c3ccc(Br)cc3c3cc(Br)ccc32)OC(=O)OC(C)(C)C)c1 (stereo not drawn) the “fold change (FC)” value (NSC [1]) was 1.25.
COc1cccc(NC/C(Cn2c3ccc(Br)cc3c3cc(Br)ccc32)=N\O)c1 was tested, and the “fold change (FC)” value (NSC [1]) was 1.13.
For OC(CNc1ccc2c(c1)OCO2)Cn1c2ccc(Br)cc2c2cc(Br)ccc21 (stereo not drawn), the “fold change (FC)” value (NSC [1]) was 0.88.
For COc1cccc(NCC(=O)Cn2c3ccc(Br)cc3c3cc(Br)ccc32)c1, the “fold change (FC)” value (NSC [1]) was 1.02.
In the case of COc1cccc(NCC(F)Cn2c3ccccc3c3cc(Br)ccc32)c1 (stereo not drawn), the “fold change (FC)” value (NSC [1]) is reported as 0.86.
For OC(CNc1ccc(Cl)cc1)Cn1c2ccc(Br)cc2c2cc(Br)ccc21 (stereo not drawn), the “fold change (FC)” value (NSC [1]) was 1.29.
In the case of COc1cccc(N(CC(Cn2c3ccc(Br)cc3c3cc(Br)ccc32)OC)S(=O)(=O)c2ccc(C)cc2)c1 (stereo not drawn), the “fold change (FC)” value (NSC [1]) is reported as 0.73.
With COc1cccc(N(Cc2ccccc2)CC(O)Cn2c3ccc(Br)cc3c3cc(Br)ccc32)c1 (stereo not drawn) the “fold change (FC)” value (NSC [1]) was 0.57.
With OC(CNc1ccccc1)Cn1c2ccc(Br)cc2c2cc(Br)ccc21 (stereo not drawn) the “fold change (FC)” value (NSC [1]) was 1.47.
With COc1cccc(NCC(F)Cn2c3ccccc3c3ccccc32)c1 (stereo not drawn) the “fold change (FC)” value (NSC [1]) was 1.07.
With COc1cccc(NCC(O)Cn2c3ccc(Br)cc3c3cc(Br)ccc32)c1 (stereo not drawn) the “fold change (FC)” value (NSC [1]) was 1.16.
COc1cccc(N(C)CC(O)Cn2c3ccc(Br)cc3c3cc(Br)ccc32)c1 (stereo not drawn) was tested, and the “fold change (FC)” value (NSC [1]) was 1.42.
For COc1cccc(OCC(O)Cn2c3ccc(Br)cc3c3cc(Br)ccc32)c1 (stereo not drawn), the “fold change (FC)” value (NSC [1]) was 1.12.
With COc1cccc(N(Cc2ccccc2)CC(F)Cn2c3ccc(Br)cc3c3cc(Br)ccc32)c1 (stereo not drawn) the “fold change (FC)” value (NSC [1]) was 0.58.
In the case of COc1cccc(N(CC(Cn2c3ccc(Br)cc3c3cc(Br)ccc32)OC)S(=O)(=O)c2ccc([N+](=O)[O-])cc2)c1 (stereo not drawn), the “fold change (FC)” value (NSC [1]) is reported as 0.92.
For COc1cccc(N(CC(O)Cn2c3ccc(Br)cc3c3cc(Br)ccc32)C(C)=O)c1 (stereo not drawn), the “fold change (FC)” value (NSC [1]) was 1.25.
In the case of COc1cccc(N(CC(O)Cn2c3ccc(Br)cc3c3cc(Br)ccc32)S(=O)(=O)c2ccc(C)cc2)c1 (stereo not drawn), the Activity (NSC [9]) is reported as “Active”, the Activity (NSC [10]) is reported as “Active” and the Activity (NSC [11]) is reported as “Active”. The Activity (NSC [2]) was “Non-toxic”, the inhibition (NSC [12]) was “Dose-dependent effect” and the Activity (NSC [13]) was “Dose-dependent effect”. The Activity (NSC [14]) was “Active”, the Activity (NSC [15]) was “Active” and the Activity (NSC [3]) was “Non-toxic”. The Activity (NSC [16]) was “Dose-dependent effect”, the “fold change (FC)” value (NSC [1]) was 1.52 and the “fold change (FC)” value (NSC [8]) was 1.43. The inhibition (NSC [17]) was “Dose-dependent effect” and the inhibition (NSC [18]) was “Dose-dependent effect”.
For COc1ccc(NCC(O)Cn2c3ccc(Br)cc3c3cc(Br)ccc32)cc1 (stereo not drawn), the “fold change (FC)” value (NSC [1]) was 1.17.
